# US8236820B2, “Anti-inflammatory compounds and uses thereof” (priority 2007, dated 2012)
# Read-outs that look alike come from different tables or passages of the source.
# How the values were obtained:
# MIA-PaCa-2 = test: Cell viability (MTT) assay, 24-h IC50, MIA-PaCa-2; assay type: cell-based, human
# HT29 = test: Cell viability (MTT) assay, 24-h IC50, HT29; assay type: cell-based, human
# MDA-MB231 = test: Cell viability (MTT) assay, 24-h IC50, MDA-MB231; assay type: cell-based, human
# MCF-7 = test: Cell viability (MTT) assay, 24-h IC50, MCF-7; assay type: cell-based, human
# SW480 = test: Cell viability (MTT) assay, 24-h IC50, SW480; assay type: cell-based, human
# BxPC-3 = test: Cell viability (MTT) assay, 24-h IC50, BxPC-3
# Experimental: Cells were incubated at 37° C. in 5% CO2. Cells were seeded at 5.5×10^4 cells/cm^2, allowed to attach overnight, and the following morning cells were treated with each of the test compounds.
# Cell viability assay: We used an assay based on the reduction of 3-(4,5-dimethylthiazol-2-yl)-2,5-diphenyltetrazolium bromide dye (MTT), which was determined according to the manufacture's protocol (Promega, Madison, Wis., USA).
# [1] = test system: MDA-MB 231 human breast cancer cells; test: Annexin V and propidium iodide staining in MDA-MB231; assay type: cell-based; conditions: MDA-MB231, compound at its IC50, 24 h; for Necrosis (%): % of entire cell population (control 0.6); for Early apoptosis (%): % of entire cell population (control 1.4); for Late apoptosis (%): % of entire cell population (control 2.0)
# Experimental: Annexin V and propidium iodide (PI) staining: Cells were seeded at a density of 1×10^5 cells/well and treated for 24 h with various concentrations of each compound or equivalent volumes of DMSO. Briefly, after incubation with the test compounds, cells were trypsinized and stained with Annexin V-FITC (Invitrogen) and PI (0.5 μg/ml). Following incubation at room temperature for 15 min in the dark, annexin V-FITC and PI fluorescence intensities were analyzed by FACScaliber (BD Bioscience). Annexin V (+)/PI (−) cells are in early apoptosis, annexin V (+)/PI (+) cells are in late apoptosis (secondary necrosis), and annexin V (−)/ PI (+) cells are necrotic cells.
# (§1) As summarized in Table 2 below, in MDA-MB231 cells, all six compounds, each used at its IC50 concentration, a) inhibited cell proliferation between 6% and 50% compared to controls; b) induced both early and late apoptosis, as well as necrosis; and c) inhibited the G1 to S cell cycle phase transition. In this Table, the values for proliferation are the percentage of the corresponding control values. Those for apoptosis and necrosis refer to the percentage of cells in each category with respect to the entire cell population, and are to be compared to the control (vehicle only-treated) cells (uppermost row).
# [2] = test system: MDA-MB 231 human breast cancer cells; test: Cell proliferation assay (BrdU incorporation) in MDA-MB231; assay type: cell-based; conditions: MDA-MB231, each compound at its IC50 concentration
# Description: Cell proliferation assay: To determine cell proliferation, we measured the incorporation of 5-bromo-2′-deoxyuridine (BrdU) into newly synthesized cellular DNA, following the manufacture's instructions (BD Biosciences, San Jose, Calif.).
# as §1
# [3] = test system: spermidine/spermine N^1-acetyltransferase (SSAT); test: SSAT enzymatic activity in SW480 cells; assay type: cell-based, human; conditions: SW480, 24 h; phospho-sulindac I 85 μM; P<0.05 versus control
# Experimental: (§2) SW480 cells were incubated without or with phospho-sulindac I (P-S) for up to 24 h and SSAT activity was determined at each time point by determining the amount of labelled N1-acetylspermidine synthesized from [^14C]acetyl-CoA and unlabeled spermidine.
# (§3) The effect of phospho-sulindac I on polyamines is mediated, at least in part, by activation of SSAT by phospho-sulindac I. It is known that conventional sulindac induces SSAT activity (Babbar et al., Cyclooxygenase-independent induction of apoptosis by sulindac sulfone is mediated by polyamines in colon cancer. J Biol Chem 2003; 278(48):47762-75.). Incubation of HT-29 and SW480 cells with 85 μM phospho-sulindac I for 24 h leads to a 3- and 4.4-fold increase of SSAT activity (P<0.05 versus control), respectively. On the other hand, incubation with sulindac led to a 1.5 and 2.5-fold increase of SSAT activity (P<0.05 versus control) in HT-29 and SW480 cells, respectively.
# APC^Min/+ mice = conditions: literature (Yang et al. 2003); cited from earlier work
# [4] = assay type: in vivo; conditions: 5 days oral gavage; phospho-sulindac I 317 mg/kg/d, sulindac 200 mg/kg/day; 8 mice/group
# Experimental: Phospho-sulindac I lacked gastrointestinal toxicity in mice; gastrointestinal toxicity is the major side effect of sulindac as well as of the entire class of NSAIDs. We evaluated in mice the potential toxicity of phospho-sulindac I. Three groups, each consisting of 8 female C57BL/6J+/+mice 6 wks of age, were treated for 5 days by oral gavage with equimolar amounts of phospho-sulindac I (317 mg/kg/d) or conventional sulindac (200 mg/kg/day) or vehicle. Mice were weighed at time 0 and on days 3 and 5. Mice surviving to the end of the study were euthanized and necropsied.
# The stomachs of sulindac-treated animals were larger than those of the other two groups and in some the liver appeared hyperemic.
# [5] = test system: spermidine/spermine N^1-acetyltransferase (SSAT); test: SSAT enzymatic activity in HT-29 cells; assay type: cell-based, human; conditions: HT-29, 24 h; phospho-sulindac I 85 μM; P<0.05 versus control
# Experimental: as §2, §3
# [6] = Homo sapiens, MIA-PaCa-2 pancreatic cancer cells, 24 h, read-out: 24-h IC50
# [7] = Homo sapiens, HT-29, HT29 colon cancer cells, 24 h, read-out: 24-h IC50
# [8] = Homo sapiens, MDA-MB-231, MDA-MB231 breast cancer cells, 24 h, read-out: 24-h IC50
# [9] = Homo sapiens, MCF7, MCF-7 breast cancer cells, 24 h, read-out: 24-h IC50
# [10] = Homo sapiens, SW480 colon cancer cells, 24 h, read-out: 24-h IC50
# [11] = Homo sapiens, BXPC-3, 24 h, read-out: 24-h IC50
# [12] = MIA-PaCa-2 pancreatic cancer cells, 24 h, read-out: 24-h IC50
# [13] = HT29 colon cancer cells, 24 h, read-out: 24-h IC50
# [14] = MDA-MB231 breast cancer cells, 24 h, read-out: 24-h IC50
# [15] = MCF-7 breast cancer cells, 24 h, read-out: 24-h IC50
# [16] = SW480 colon cancer cells, 24 h, read-out: 24-h IC50
# [17] = read-out: 24-h IC50, BxPC-3 pancreatic cancer cells, 24 h
# [18] = Homo sapiens, MIA PaCa-2, 24 h, read-out: 24-h IC50
# [19] = Homo sapiens, HT-29, 24 h, read-out: 24-h IC50
# [20] = Homo sapiens, MDA-MB-231, 24 h, read-out: 24-h IC50
# [21] = Homo sapiens, MCF7, 24 h, read-out: 24-h IC50
# [22] = Homo sapiens, SW480, 24 h, read-out: 24-h IC50
# [23] = Homo sapiens, BXPC-3, 24 h, read-out: IC50 (growth of human cancer cells)
SMILES,IC50 (MIA-PaCa-2; [6]) [µM],IC50 (HT29; [7]) [µM],IC50 (MDA-MB231; [8]) [µM],IC50 (MCF-7; [9]) [µM],IC50 (SW480; [10]) [µM],IC50 (BxPC-3; [11]) [µM],Necrosis (%) [1] [%],Early apoptosis (%) [1] [%],Late apoptosis (%) [1] [%],Proliferation (% control) [2] [% control],other results
"CC(C)Cc1ccc(C(C)C(=O)O)cc1 (stereo not drawn) [Ibuprofen, ibuprofen, reference compound]",1280,1550,748,1230,1060,1060,,,,,
CCOP1(=O)OCC(COC(=O)c2ccccc2OC(C)=O)O1 (stereo not drawn) [Glycero-phospho-aspirin I],,,,,,,0.3,4.8,3.2,94,IC50 (MIA-PaCa-2; [12]): 303 µM; IC50 (HT29; [13]): 54 µM; IC50 (MDA-MB231; [14]): 199 µM; IC50 (MCF-7; [15]): 32 µM; IC50 (SW480; [16]): 169 µM; IC50 (BxPC-3; [17]): 63 µM
"CC(=O)Oc1ccccc1C(=O)O [Aspirin, acetylsalicylic acid, reference compound]",> 2000,4000,> 2000,> 2000,> 2000,> 2000,,,,,
"CC1=C(CC(=O)O)c2cc(F)ccc2C1=Cc1ccc([S+](C)[O-])cc1 (stereo not drawn) [Sulindac, 2-[6-fluoro-2-methyl-3-[(4-methylsulfinylphenyl)methylidene]inden-1-yl]-acetic acid, reference compound]",1040,1170,530,1130,900,489,,,,,increase of SSAT activity [3]: 2.5 fold; effect on formation of tumors in the colon of Min mice (APC^Min/+ mice): stimulates the formation of tumors in the colon; mortality [4]: 75%; increase of SSAT activity [5]: 1.5 fold
CCOP(=O)(OCC)OCCCCOC(=O)C(C)c1ccc(CC(C)C)cc1 (stereo not drawn) [Phospho-Ibuprofen],,,,,,53,5.6,7.4,43.2,50,IC50 (MIA-PaCa-2; [18]): 104 µM; IC50 (HT29; [19]): 82 µM; IC50 (MDA-MB231; [20]): 28 µM; IC50 (MCF-7; [21]): 79 µM; IC50 (SW480; [22]): 75 µM
CCOP(=O)(OCC)OCCCCOC(=O)CC1=C(C)/C(=C/c2ccc(SC)cc2)c2ccc(F)cc21 [Phospho-sulindac II],,,,,,32,2.6,5.0,23.2,52,IC50 (MIA-PaCa-2; [18]): 92 µM; IC50 (HT29; [19]): 70 µM; IC50 (MDA-MB231; [20]): 18 µM; IC50 (MCF-7; [21]): 38 µM; IC50 (SW480; [22]): 73 µM
"CC(C(=O)O)c1ccc(-c2ccccc2)c(F)c1 (stereo not drawn) [Flurobiprofen, flurbiprofen, reference compound]",1270,1670,823,1430,1220,825,,,,,
CCOP(=O)(OCC)OCC(COC(=O)c1ccccc1OC(C)=O)OP(=O)(OCC)OCC (stereo not drawn) [Glycero-phospho-aspirin II],,,,,,,0.4,2.4,2.2,52,IC50 (MIA-PaCa-2; [12]): 242 µM; IC50 (HT29; [13]): 40 µM; IC50 (MDA-MB231; [14]): 360 µM; IC50 (MCF-7; [15]): 248 µM; IC50 (SW480; [16]): 170 µM; IC50 (BxPC-3; [17]): 38 µM
"CCCC(CCC)C(=O)O [VPA, Valproic acid, reference compound]",,,,,,,,,,,"IC50 (MIA-PaCa-2; Homo sapiens, MIA PaCa-2, Table 3, MIA PaCa2, 24-h IC50, read-out: IC50 (growth of human cancer cells)): 3080 µM; IC50 (HT29; Homo sapiens, Table 3, HT-29, 24-h IC50, read-out: IC50 (growth of human cancer cells)): 3210 µM; IC50 (MDA-MB231; Homo sapiens, MDA-MB-231, Table 3, MDA-MB231, 24-h IC50, read-out: IC50 (growth of human cancer cells)): 4050 µM; IC50 (MCF-7; Homo sapiens, MCF7, Table 3, MCF-7, 24-h IC50, read-out: IC50 (growth of human cancer cells)): 1780 µM; IC50 (SW480; Homo sapiens, Table 3, SW480, 24-h IC50, read-out: IC50 (growth of human cancer cells)): 3640 µM; IC50 (BxPC-3; [23]): 1680 µM"
CCCC(CCC)C(=O)Oc1ccc(COP(=O)(OCC)OCC)cc1 [Phosoho-VPA],,,,,,,,,,,"IC50 (MIA-PaCa-2; Homo sapiens, MIA PaCa-2, 24 h, read-out: IC50 (growth of human cancer cells)): 89 µM; IC50 (HT29; Homo sapiens, HT-29, 24 h, read-out: IC50 (growth of human cancer cells)): 13 µM; IC50 (MDA-MB231; Homo sapiens, MDA-MB-231, 24 h, read-out: IC50 (growth of human cancer cells)): 30 µM; IC50 (MCF-7; Homo sapiens, MCF7, 24 h, read-out: IC50 (growth of human cancer cells)): 51 µM; IC50 (SW480; Homo sapiens, SW480, 24 h, read-out: IC50 (growth of human cancer cells)): 59 µM; IC50 (BxPC-3; [23]): 36 µM"
CCOP(=O)(OCC)OCCCCOC(=O)C(C)c1ccc(-c2ccccc2)c(F)c1 (stereo not drawn) [Phospho-Flurobiprofen],,,,,,34,1.7,5.3,20.6,42,IC50 (MIA-PaCa-2; [18]): 135 µM; IC50 (HT29; [19]): 80 µM; IC50 (MDA-MB231; [20]): 17 µM; IC50 (MCF-7; [21]): 65 µM; IC50 (SW480; [22]): 104 µM
